# Source: patent publication EP4748847A1, “PEPTIDE COMPLEX HAVING VEGFR -2 AGONIST ACTIVITY” (Peptidream Inc, priority 2023, dated 2025)
# *1 amine or outer side, *2 acyl side, *3 side chain or, on linkers, in order; H or OH if unused. Where a SMILES comes first, the peptide text is derived from it. Bridges are numbered along the chain shown (N, C = ends). Roman numbers before positions name the chains, in order. Where no end group is shown, it is not given here. [ ]: non-standard residue; d: D form. X2 = O=C(OCCOCCOCCOCCOCCOCCOCCOCCOCCOCCOCCOCCOC(=O)[*:2])[*:1]; Phe(4-guanidino) = N=C(N)Nc1ccc(C[C@H](N)C(=O)O)cc1; hTyr = N[C@@H](CCc1ccc(O)cc1)C(=O)O; Hyp = O=C(O)[C@@H]1C[C@@H](O)CN1; tBuAla = CC(C)(C)C[C@H](N)C(=O)O; Tle = CC(C)(C)[C@H](N)C(=O)O
# What was measured:
# [1] = target: T1, VEGFR-2 (Homo sapiens, UniProt P35968); assay: pVEGFR AlphaLISA assay (VEGFR-2 phosphorylation, p-Tyr1175) in HUVECs; format: cell-based; conditions: 10 minutes stimulation, % activity, maximum VEGF165a signal = 100%, unstimulated = 0%
# T1 construct: endogenous in cells; host or cells: HUVEC
# Protocol: To evaluate the VEGFR-2 activation ability of the VEGFR-2 agonist peptides of the present invention, VEGFR-2 phosphorylation was verified. HUVECs were cultured using EGM™ -2 Endothelial Cell Growth Medium-2 BulletKit (LONZA; CC-3162). After detaching cells using Tryple (Thermo Fisher Scientific), they were seeded into a 96-well PDL-coated plate (Corning: 354461) at a density of 24,000 cells per well and cultured for 2 days. For starvation, the medium was replaced with EBM-2 medium (LONZA) containing 0.5% FBS (Thermo Fisher Scientific), 0.1% heparin (included with the above LONZA CC-3162), and 0.1% gentamicin (Nacalai), and the cells were cultured for 18 hours. Subsequently, Recombinant Human VEGF165a Protein (R&D Systems) or the peptide was added, and the cells were cultured in a CO2 incubator at 37°C. After 10 minutes of stimulation, cells were lysed using the Lysis Buffer included in the AlphaLISA SureFire Ultra VEGFR-2 (p-Tyr1175) Assay Kit (PerkinElmer) to lyse the cells. The procedure was performed according to the kit protocol, and signal detection was performed using a SpectraMax Paradigm multimode microplate reader (Molecular Devices). The obtained signals were analyzed using GraphPad Prism, and % activity was calculated with the maximum signal induced by VEGF165a set as 100% and the unstimulated control as 0%.
# The VEGF165a concentration was evaluated at five points (0.08, 0.31, 1.25, 5, 20 nM) using 1/4-fold dilutions starting from 20 nM to determine the maximum value (100%). Peptide concentrations tested were: 3.2, 16, 80 nM for dimer structure number 1; 10, 100 nM for dimer structures numbers 2-41; and 1.25, 5, 20 nM for dimer structures numbers 42-57. […]
# Peptides showing 50% or more activity at 10 nM were designated 2-A, those showing 50% or more activity at 100 nM were designated 2-B, and those showing 1% or more but less than 50% activity at 100 nM were designated 2-C.
# Peptides showing 50% or more activity at 1.25 nM were designated 3-A, those showing 50% or more activity at 5 nM were designated 3-B, those showing 50% or more activity at 20 nM were designated 3-C, and those showing 1% or more but less than 50% activity at 20 nM were designated 3-D.
# [2] = test system: ERK; assay: pERK AlphaLISA assay (ERK phosphorylation, p-Erk1/2 Thr202/Tyr204) in HUVEC lysate; format: cell-based, human; conditions: HUVEC lysate of the pVEGFR assay; % activity, maximum VEGF165a signal = 100%, unstimulated = 0%; peptide 10, 100 nM (dimer structures 2-41)
# Protocol: To evaluate the intracellular signaling activation ability of the VEGFR-2 agonist peptides of the present invention, ERK phosphorylation was verified. Using the lysate employed in the pVEGFR AlphaLISA assay, the assay was performed according to the protocol of the AlphaLISA SureFire Ultra p-Erk1/2 (Thr202/Tyr204) Assay Kit (PerkinElmer). Signal detection was performed using a SpectraMax Paradigm multimode microplate reader (Molecular Devices). The obtained signals were analyzed using GraphPad Prism, and % activity was calculated with the maximum signal induced by VEGF165a set as 100% and the unstimulated control as 0%.
# The VEGF165a concentration was evaluated at five points (0.08, 0.31, 1.25, 5, 20 nM) using 1/4-fold dilutions starting from 20 nM to determine the maximum value (100%). Peptide concentrations tested were: 3.2, 16, 80 nM for dimer structure […], 100 nM for dimer structures numbers 2-41; and 1.25, 5, 20 nM for dimer structures numbers 42-57.
# For % activity, peptides showing ≥50% activity at 3.2 nM were designated 1-A, those showing ≥50% activity at 16 nM were designated 1-B, those showing ≥50% activity at 80 nM were designated 1-C, and those showing ≥1% but <50% activity at 80 nM were designated 1-D. […]
# [3] = test system: HUVEC; assay: HUVEC proliferation promotion evaluation (CellTiter-Glo); format: cell-based, human; conditions: 2 days culture, % activity, maximum VEGF165a signal = 100%, peptide 1, 10, 100 nM
# Protocol: To evaluate the biological activity of the VEGFR-2 agonist peptide of the present invention, an HUVEC proliferation promotion evaluation was conducted. HUVECs cultured as described above were detached using Tryple (Thermo Fisher Scientific). They were then seeded at 10,000 cells per well onto Nunc™ MicroWell™ 96 -Well, Nunclon Delta-Treated, Flat-Bottom Microplate (cat. #136101) . After 24 hours, cells were starved by replacing with EBM-2 medium (LONZA) containing 0.5% FBS (Thermo Fisher Scientific), 0.1% Heparin (included with the above Lonza CC-3162), and 0.1% Gentamicin (Nacalai) and cultured for 18 hours. Subsequently, Recombinant Human VEGF 165a Protein (R&D Systems) or the peptide was added, and the cells were cultured for 2 days at 37°C in a CO2 incubator. Assays were performed according to the CellTiter-Glo (Promega) kit protocol, and signals were detected using a SpectraMax Paradigm multimode microplate reader (Molecular Devices) was used for signal detection. The obtained signals were analyzed using GraphPad Prism, and % activity was calculated with the maximum signal induced by VEGF165a set as 100% and the unstimulated control as 0%.
# The VEGF165a concentration was evaluated at six points (0.006, 0.03, 0.16, 0.8, 4, 20 nM) using 1/5-fold dilutions starting from 20 nM to determine the maximum value (100%). […]
# [4] = peptide 10, 100 nM (dimer structures 2-41)
# [5] = peptide 1.25, 5, 20 nM (dimer structures 42-57)
# T1 sequence (P35968 20-1356): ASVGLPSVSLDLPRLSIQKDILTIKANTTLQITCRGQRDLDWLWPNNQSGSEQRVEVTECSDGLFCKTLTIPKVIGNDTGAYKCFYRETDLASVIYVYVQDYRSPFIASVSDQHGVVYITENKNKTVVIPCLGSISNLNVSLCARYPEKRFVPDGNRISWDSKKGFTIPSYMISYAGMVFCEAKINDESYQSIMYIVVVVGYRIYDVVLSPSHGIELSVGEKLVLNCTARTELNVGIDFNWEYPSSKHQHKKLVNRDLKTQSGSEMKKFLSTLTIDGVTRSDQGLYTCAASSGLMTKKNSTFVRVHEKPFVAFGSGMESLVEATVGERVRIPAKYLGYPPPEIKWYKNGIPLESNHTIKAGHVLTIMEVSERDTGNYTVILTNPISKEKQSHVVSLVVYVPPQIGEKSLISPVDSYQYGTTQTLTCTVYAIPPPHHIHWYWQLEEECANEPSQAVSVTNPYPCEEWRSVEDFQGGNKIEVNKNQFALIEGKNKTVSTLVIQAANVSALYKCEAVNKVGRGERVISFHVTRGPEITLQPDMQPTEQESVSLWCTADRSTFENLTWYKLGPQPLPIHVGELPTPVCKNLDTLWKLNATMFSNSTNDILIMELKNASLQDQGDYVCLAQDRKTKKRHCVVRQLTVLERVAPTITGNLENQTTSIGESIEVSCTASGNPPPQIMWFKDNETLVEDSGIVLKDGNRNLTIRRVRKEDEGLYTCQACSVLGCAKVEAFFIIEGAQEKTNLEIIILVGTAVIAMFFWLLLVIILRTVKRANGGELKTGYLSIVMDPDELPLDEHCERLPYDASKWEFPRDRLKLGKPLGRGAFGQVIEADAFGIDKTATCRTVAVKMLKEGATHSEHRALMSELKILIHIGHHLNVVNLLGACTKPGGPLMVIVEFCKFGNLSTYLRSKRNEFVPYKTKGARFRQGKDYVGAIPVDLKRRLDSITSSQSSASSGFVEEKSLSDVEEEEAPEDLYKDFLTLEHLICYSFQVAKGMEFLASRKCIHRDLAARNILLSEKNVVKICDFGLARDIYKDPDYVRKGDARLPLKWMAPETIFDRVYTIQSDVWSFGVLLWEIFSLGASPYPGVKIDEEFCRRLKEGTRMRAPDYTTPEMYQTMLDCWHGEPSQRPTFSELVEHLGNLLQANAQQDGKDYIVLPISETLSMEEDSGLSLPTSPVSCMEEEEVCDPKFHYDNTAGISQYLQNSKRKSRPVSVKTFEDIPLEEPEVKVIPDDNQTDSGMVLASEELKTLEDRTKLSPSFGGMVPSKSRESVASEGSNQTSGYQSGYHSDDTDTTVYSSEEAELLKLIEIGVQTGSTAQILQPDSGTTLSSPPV
Molecule,"pVEGFR2 Assay Results [1, 4]",pERK Assay Results [2],"pVEGFR2 Assay Results [1, 5]",proliferation [3]
"CC(C)[C@@H]1NC(=O)CNC(=O)[C@H](CCCCNC(=O)OCCOCCOCCOCCOCCOCCOCCOCCOCCOCCOCCOCCOC(=O)NCCCC[C@@H]2NC(=O)[C@H](C(C)C)NC(=O)[C@H](CC(=O)O)NC(=O)[C@H](C(C)C)NC(=O)[C@H](Cc3c[nH]c4ccccc34)NC(=O)[C@H](Cc3c[nH]c4ccccc34)NC(=O)CSC[C@@H](C(=O)NCC(N)=O)NC(=O)[C@H](CC(=O)O)NC(=O)[C@H](CCc3ccc(O)cc3)NC(=O)[C@H](Cc3ccccc3)NC(=O)[C@H](Cc3ccc(O)cc3)NC(=O)[C@H](CC(N)=O)NC(=O)[C@H](C(C)C)NC(=O)CNC2=O)NC(=O)[C@H](C(C)C)NC(=O)[C@H](CC(=O)O)NC(=O)[C@H](C(C)C)NC(=O)[C@H](Cc2c[nH]c3ccccc23)NC(=O)[C@H](Cc2c[nH]c3ccccc23)NC(=O)CSC[C@@H](C(=O)NCC(N)=O)NC(=O)[C@H](CC(=O)O)NC(=O)[C@H](CCc2ccc(O)cc2)NC(=O)[C@H](Cc2ccccc2)NC(=O)[C@H](Cc2ccc(O)cc2)NC(=O)[C@H](CC(N)=O)NC1=O [compound 37] (I: {CH2CO}-WWVDVKGVNYF[hTyr]DCG-NH2 / II: {CH2CO}-WWVDVKGVNYF[hTyr]DCG-NH2; linker I:6-II:6 via X2; thioether I:N-I:14, II:N-II:14)",2-A (50% or more activity at 10 nM),2-B (50% or more activity at 100 nM),–,–
"CC(C)[C@@H]1NC(=O)[C@H](CC(=O)O)NC(=O)[C@H](C(C)(C)C)NC(=O)[C@H](Cc2c[nH]c3ccccc23)NC(=O)[C@H](Cc2c[nH]c3ccccc23)NC(=O)CSC[C@@H](C(=O)NCC(N)=O)NC(=O)[C@@H]2C[C@@H](O)CN2C(=O)[C@H](CCc2ccc(O)cc2)NC(=O)[C@H](Cc2ccc(NC(=N)N)cc2)NC(=O)[C@H](Cc2ccc(O)cc2)NC(=O)[C@H](CC(C)(C)C)NC(=O)[C@H](CC(=O)O)NC(=O)[C@H](CC(=O)O)NC(=O)[C@H](CCCCNC(=O)OCCOCCOCCOCCOCCOCCOCCOCCOCCOCCOCCOCCOC(=O)NCCCC[C@@H]2NC(=O)[C@H](C(C)C)NC(=O)[C@H](CC(=O)O)NC(=O)[C@H](C(C)(C)C)NC(=O)[C@H](Cc3c[nH]c4ccccc34)NC(=O)[C@H](Cc3c[nH]c4ccccc34)NC(=O)CSC[C@@H](C(=O)NCC(N)=O)NC(=O)[C@@H]3C[C@@H](O)CN3C(=O)[C@H](CCc3ccc(O)cc3)NC(=O)[C@H](Cc3ccc(NC(=N)N)cc3)NC(=O)[C@H](Cc3ccc(O)cc3)NC(=O)[C@H](CC(C)(C)C)NC(=O)[C@H](CC(=O)O)NC(=O)[C@H](CC(=O)O)NC2=O)NC1=O [compound 54] (I: {CH2CO}-WW[Tle]DVKDD[tBuAla]Y[Phe(4-guanidino)][hTyr][Hyp]CG-NH2 / II: {CH2CO}-WW[Tle]DVKDD[tBuAla]Y[Phe(4-guanidino)][hTyr][Hyp]CG-NH2; linker I:6-II:6 via X2; thioether I:N-I:14, II:N-II:14)",–,–,3-B (50% or more activity at 5 nM),–
"CC(C)[C@@H]1NC(=O)[C@H](CC(=O)O)NC(=O)[C@H](CCc2ccc(O)cc2)NC(=O)[C@H](Cc2c[nH]c3ccccc23)NC(=O)[C@H](Cc2c[nH]c3ccccc23)NC(=O)CSC[C@@H](C(=O)NCC(N)=O)NC(=O)[C@H](CC(=O)O)NC(=O)[C@H](CCc2ccc(O)cc2)NC(=O)[C@H](Cc2ccc(NC(=N)N)cc2)NC(=O)[C@H](Cc2ccc(O)cc2)NC(=O)[C@H](CC(C)(C)C)NC(=O)[C@H](CC(=O)O)NC(=O)[C@H](CC(=O)O)NC(=O)[C@H](CCCCNC(=O)OCCOCCOCCOCCOCCOCCOCCOCCOCCOCCOCCOCCOC(=O)NCCCC[C@@H]2NC(=O)[C@H](C(C)C)NC(=O)[C@H](CC(=O)O)NC(=O)[C@H](CCc3ccc(O)cc3)NC(=O)[C@H](Cc3c[nH]c4ccccc34)NC(=O)[C@H](Cc3c[nH]c4ccccc34)NC(=O)CSC[C@@H](C(=O)NCC(N)=O)NC(=O)[C@H](CC(=O)O)NC(=O)[C@H](CCc3ccc(O)cc3)NC(=O)[C@H](Cc3ccc(NC(=N)N)cc3)NC(=O)[C@H](Cc3ccc(O)cc3)NC(=O)[C@H](CC(C)(C)C)NC(=O)[C@H](CC(=O)O)NC(=O)[C@H](CC(=O)O)NC2=O)NC1=O [compound 57] (I: {CH2CO}-WW[hTyr]DVKDD[tBuAla]Y[Phe(4-guanidino)][hTyr]DCG-NH2 / II: {CH2CO}-WW[hTyr]DVKDD[tBuAla]Y[Phe(4-guanidino)][hTyr]DCG-NH2; linker I:6-II:6 via X2; thioether I:N-I:14, II:N-II:14)",–,–,3-D (1% or more but less than 50% activity at 20 nM),–
"Dimer Structure No. 1: complex of Peptide Sequence No. 3 (W-W-V-D-V-Q-D-D-L-Y-F-V-D-C-G) and Linker Structure No. 1 (PEG12c-K-PEG12c), Conjugation No. 15 (WWVDVQDDLYFVDCG; also: dimer via PEG12c-K-PEG12c linker)",2-C (1% or more but less than 50% activity at 100 nM),2-B (50% or more activity at 100 nM),–,4-D (≥1% but <50% activity at 100 nM)
